Measured values from paper PMC8421423, “Cellular model system to dissect the isoform-selectivity of Akt inhibitors” (Nature Communications, 2021).
Several values for one entry are separate records, joined by “and”; a condition that tells them apart may be missing. Equal entries are not always repeated. Where two headings read alike, the source gives them in different places. One block for each molecule: values may come before it.

Experiments:
parental Ba/F3 cells = experiment: CellTiter-Glo cell viability assay; type: cell-based, murine
Ba/F3^myr-Akt1 cells = experiment: CellTiter-Glo cell viability assay; conditions: for Log ratio EC50 [Akt] / EC50 [Akt], Akt1 / Akt2: cell viability assay Ba/F3 myr-Akt cells, log units
Ba/F3^myr-Akt2 cells = experiment: CellTiter-Glo cell viability assay
Ba/F3^myr-Akt3 cells = experiment: CellTiter-Glo cell viability assay; conditions: for Log ratio EC50 [Akt] / EC50 [Akt], Akt3 / Akt2: cell viability assay Ba/F3 myr-Akt cells, log units
Akt1 [1] = target: T1, Akt1 (Homo sapiens, UniProt P31749); experiment: STK HTRF KinEASE activity-based assay (IC50); conditions: for Log ratio IC50 [Akt] / IC50 [Akt], Akt1 / Akt2: biochemical activity based assay, log units
Akt2 [2] = target: T2, Akt2 (Homo sapiens, UniProt P31751); experiment: STK HTRF KinEASE activity-based assay (IC50)
Akt3 = Akt3 (Homo sapiens, UniProt Q9Y243); experiment: STK HTRF KinEASE activity-based assay (IC50)
Akt2 [3] = target: T2, Akt2; experiment: PhosphoSens continuous fluorometric kinetic enzyme assay
Protocol: (§1) By addition of either 8 nM Akt1, 2 nM Akt2, or 5 nM Akt3 (final concentrations) the reactions were initiated. […] Afterwards the kobs-values were plotted versus the inhibitor concentrations [I] and then fit to the following hyperbolic Eq.

Akt1 [4] = target: T1, Akt1; experiment: as above
Protocol: as §1

[5] = parental cells, single replicates, read-out: CTG BaF3, individual determinations
[6] = Mus musculus, read-out: CTG BaF3myr-Akt1, individual determinations, single replicates
[7] = read-out: CTG BaF3myr-Akt1, individual determinations, single replicates
[8] = Mus musculus, read-out: CTG BaF3myr-Akt2, Mean, mean of replicates
[9] = Mus musculus, read-out: CTG BaF3myr-Akt2, individual determinations, single replicates
[10] = read-out: CTG BaF3myr-Akt2, individual determinations, single replicates
[11] = Mus musculus, read-out: CTG BaF3myr-Akt3, Mean, mean of replicates
[12] = Mus musculus, read-out: CTG BaF3myr-Akt3, individual determinations, single replicates
[13] = read-out: CTG BaF3myr-Akt3, individual determinations, single replicates
[14] = HTRF IC50 Akt1, Mean, mean of replicates
[15] = HTRF IC50 Akt1, individual determinations, single replicates
[16] = IC50 Akt1, HTRF, ATP at KM, 1 h preincubation
[17] = HTRF IC50 Akt2, Mean, mean of replicates
[18] = HTRF IC50 Akt2, individual determinations, single replicates
[19] = IC50 Akt2, HTRF, ATP at KM, 1 h preincubation
[20] = HTRF IC50 Akt3, Mean, mean of replicates
[21] = HTRF IC50 Akt3, individual determinations, single replicates
[22] = IC50 Akt3, HTRF, ATP at KM, 1 h preincubation
[23] = Ki Akt2, Mean, mean of replicates
[24] = Ki Akt2, individual determinations, single replicates
[25] = read-out: kinact /Ki Akt2, individual determinations, single replicates
[26] = read-out: kinact Akt2, Mean, mean of replicates
[27] = read-out: kinact Akt2, individual determinations, single replicates

Akt3, sequence (Q9Y243 whole entry): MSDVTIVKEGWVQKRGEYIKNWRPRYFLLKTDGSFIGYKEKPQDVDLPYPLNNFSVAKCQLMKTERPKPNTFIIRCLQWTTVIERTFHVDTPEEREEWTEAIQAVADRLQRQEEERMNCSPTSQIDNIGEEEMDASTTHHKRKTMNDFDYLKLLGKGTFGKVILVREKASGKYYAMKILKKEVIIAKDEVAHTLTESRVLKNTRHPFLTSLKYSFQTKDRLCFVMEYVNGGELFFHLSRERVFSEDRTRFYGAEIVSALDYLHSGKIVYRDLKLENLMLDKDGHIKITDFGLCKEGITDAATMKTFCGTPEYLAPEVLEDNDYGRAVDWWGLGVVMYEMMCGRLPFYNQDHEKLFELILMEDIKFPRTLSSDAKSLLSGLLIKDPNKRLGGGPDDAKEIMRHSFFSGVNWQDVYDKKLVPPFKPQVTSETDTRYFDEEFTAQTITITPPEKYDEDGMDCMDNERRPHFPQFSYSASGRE
T1 sequence (P31749 whole entry): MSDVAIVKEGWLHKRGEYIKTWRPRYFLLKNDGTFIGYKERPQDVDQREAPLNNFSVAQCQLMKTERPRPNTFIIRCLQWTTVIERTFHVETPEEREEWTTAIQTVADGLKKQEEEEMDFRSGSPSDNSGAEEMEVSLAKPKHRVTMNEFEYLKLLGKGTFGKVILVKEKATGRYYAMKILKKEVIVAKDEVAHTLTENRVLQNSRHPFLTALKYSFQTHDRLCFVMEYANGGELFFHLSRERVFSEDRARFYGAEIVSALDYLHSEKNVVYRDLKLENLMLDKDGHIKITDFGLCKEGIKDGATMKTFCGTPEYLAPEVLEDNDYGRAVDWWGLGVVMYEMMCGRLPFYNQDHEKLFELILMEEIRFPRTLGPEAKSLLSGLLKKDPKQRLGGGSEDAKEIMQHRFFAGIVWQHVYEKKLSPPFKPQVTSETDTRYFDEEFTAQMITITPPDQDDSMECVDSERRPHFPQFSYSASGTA
T2 sequence (P31751 whole entry): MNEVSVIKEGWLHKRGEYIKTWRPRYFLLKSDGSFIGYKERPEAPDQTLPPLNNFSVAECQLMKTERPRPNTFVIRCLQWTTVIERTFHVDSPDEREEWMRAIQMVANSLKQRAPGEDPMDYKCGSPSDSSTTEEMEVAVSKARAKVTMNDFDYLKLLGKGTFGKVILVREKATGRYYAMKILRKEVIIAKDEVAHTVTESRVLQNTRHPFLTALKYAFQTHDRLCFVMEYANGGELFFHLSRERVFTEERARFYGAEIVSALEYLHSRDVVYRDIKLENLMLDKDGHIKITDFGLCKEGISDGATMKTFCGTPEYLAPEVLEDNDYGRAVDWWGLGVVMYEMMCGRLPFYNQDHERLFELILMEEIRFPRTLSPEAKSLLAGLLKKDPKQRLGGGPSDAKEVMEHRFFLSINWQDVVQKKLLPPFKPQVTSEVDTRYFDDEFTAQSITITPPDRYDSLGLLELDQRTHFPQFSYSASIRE

EC50 (Ba/F3^myr-Akt1 cells; [6]): > 30000 nM | EC50 (Ba/F3^myr-Akt1 cells; [7]): 28800 nM and 21100 nM | EC50 (Ba/F3^myr-Akt2 cells; [8]): 7990 nM | EC50 (Ba/F3^myr-Akt2 cells; [9]): 7980 nM | EC50 (Ba/F3^myr-Akt2 cells; [10]): 5410 nM and 9280 nM | EC50 (Ba/F3^myr-Akt3 cells; [11]): 24300 nM | EC50 (Ba/F3^myr-Akt3 cells; [12]): 25300 nM | EC50 (Ba/F3^myr-Akt3 cells; [13]): 25700 nM and 21800 nM | IC50 (Akt1 [1]; [14]): 1720 nM | IC50 (Akt1 [1]; [15]): 1890 nM and 1690 nM and 1560 nM | IC50 (Akt1 [1]; [16]): 1720 ± 166 nM | Log ratio IC50 [Akt] / IC50 [Akt], Akt1 / Akt2 (Akt1 [1]): 1.26 | IC50 (Akt2 [2]; [17]): 93.7 nM | IC50 (Akt2 [2]; [18]): 92.4 nM and 89.8 nM and 98.9 nM | IC50 (Akt2 [2]; [19]): 94 ± 4 nM | IC50 (Akt3; [20]): 1560 nM | IC50 (Akt3; [21]): 1650 nM and 1470 nM and 1570 nM | IC50 (Akt3; [22]): 1560 ± 75 nM | Ki (Akt2 [3]; Ki Akt2): 4 ± 1 nM | Ki (Akt2 [3]; [23]): 4.18 nM | Ki (Akt2 [3]; [24]): 5.1 nM and 4.1 nM and 3.3 nM | kinact/KI (Akt2 [3]; read-out: kinact /Ki Akt2): 25000 ± 5000 M⁻¹ s⁻¹ | kinact/KI (Akt2 [3]; [25]): 27000 M⁻¹ s⁻¹ | kinact (Akt2 [3]; read-out: kinact Akt2): 0.0001 s⁻¹ | kinact (Akt2 [3]; [26]): 0.0001 s⁻¹ | kinact (Akt2 [3]; [27]): 0.000133 s⁻¹ | kinact Akt2, individual determinations (Akt2 [3]; single replicates): 0.00457 min⁻¹ and 0.006 min⁻¹
Compound: C=CC(=O)Nc1ccc2[nH]c(=O)n(C3CCN(Cc4ccc(-c5ncc(C(=O)NCC(C)C)cc5-c5ccccc5)cc4)CC3)c2c1 [compound 10]
EC50 (parental Ba/F3 cells; Mus musculus, BaF3, parental cells, single replicates, read-out: CTG BaF3, individual determinations): 15300 nM | EC50 (parental Ba/F3 cells; [5]): 19400 nM and > 30000 nM | Log ratio EC50 [Akt] / EC50 [Akt], Akt1 / Akt2 (Ba/F3^myr-Akt1 cells): 0.52 | Log ratio EC50 [Akt] / EC50 [Akt], Akt3 / Akt2 (Ba/F3^myr-Akt3 cells): -0.48

EC50 (Ba/F3^myr-Akt1 cells; Mus musculus, read-out: CTG BaF3myr-Akt1, Mean, mean of replicates): 19300 nM | EC50 (Ba/F3^myr-Akt1 cells; [6]): 21300 nM | EC50 (Ba/F3^myr-Akt1 cells; [7]): 19500 nM and 17100 nM | EC50 (Ba/F3^myr-Akt2 cells; [8]): 7180 nM | EC50 (Ba/F3^myr-Akt2 cells; [9]): 7180 nM | EC50 (Ba/F3^myr-Akt2 cells; [10]): 6220 nM and 7660 nM | EC50 (Ba/F3^myr-Akt3 cells; [11]): 22600 nM | EC50 (Ba/F3^myr-Akt3 cells; [12]): 25800 nM | EC50 (Ba/F3^myr-Akt3 cells; [13]): 26500 nM and 15600 nM | IC50 (Akt1 [1]; [14]): 97.6 nM | IC50 (Akt1 [1]; [15]): 113 nM and 96 nM and 84.4 nM | IC50 (Akt1 [1]; [16]): 98 ± 15 nM | Log ratio IC50 [Akt] / IC50 [Akt], Akt1 / Akt2 (Akt1 [1]): 0.27 | IC50 (Akt2 [2]; [17]): 53.5 nM | IC50 (Akt2 [2]; [18]): 53.9 nM and 59.1 nM and 47.4 nM | IC50 (Akt2 [2]; [19]): 53 ± 5 nM | IC50 (Akt3; [20]): 3540 nM | IC50 (Akt3; [21]): 3080 nM and 3130 nM and 4410 nM | IC50 (Akt3; [22]): 3540 ± 617 nM | Ki (Akt1 [4]; Ki Akt1): 8 ± 2 nM | Ki (Akt1 [4]; Ki Akt1, Mean, mean of replicates): 8.12 nM | Ki (Akt1 [4]; Ki Akt1, individual determinations, single replicates): 5.5 nM and 10.9 nM | kinact/KI (Akt1 [4]; read-out: kinact /Ki Akt1): 31000 ± 11000 M⁻¹ s⁻¹ | kinact/KI (Akt1 [4]; read-out: kinact /Ki Akt1, Mean, mean of replicates): 31000 M⁻¹ s⁻¹ | kinact (Akt1 [4]; read-out: kinact Akt1): 0.000233 s⁻¹ | kinact (Akt1 [4]; read-out: kinact Akt1, individual determinations, single replicates): 0.00025 s⁻¹ | kinact Akt1, individual determinations (Akt1 [4]; single replicates): 0.012 min⁻¹ and 0.015 min⁻¹ | Ki (Akt2 [3]; Ki Akt2): 40 ± 3 nM | Ki (Akt2 [3]; [23]): 40.8 nM | Ki (Akt2 [3]; [24]): 42.3 nM (2×) and 37.7 nM | kinact/KI (Akt2 [3]; read-out: kinact /Ki Akt2): 8000 ± 1000 M⁻¹ s⁻¹ | kinact/KI (Akt2 [3]; read-out: kinact /Ki Akt2, Mean, mean of replicates): 7580 M⁻¹ s⁻¹ | kinact/KI (Akt2 [3]; [25]): 7430 M⁻¹ s⁻¹ | kinact (Akt2 [3]; read-out: kinact Akt2): 0.000317 s⁻¹ | kinact (Akt2 [3]; [26]): 0.000317 s⁻¹ | kinact (Akt2 [3]; [27]): 0.000317 s⁻¹ | kinact /Ki Akt2, individual determinations (Akt2 [3]; single replicates): 0.00743 | kinact Akt2, individual determinations (Akt2 [3]; single replicates): 0.019 min⁻¹ and 0.018 min⁻¹
Compound: C=CC(=O)Nc1ccc2[nH]c(=O)n(C3CCN(Cc4ccc(-c5ncc(C(=O)Nc6cnn(C)c6)cc5-c5ccccc5)cc4)CC3)c2c1 [compound 13]
EC50 (parental Ba/F3 cells; [5]): 9100 nM and 28800 nM and > 30000 nM | Log ratio EC50 [Akt] / EC50 [Akt], Akt1 / Akt2 (Ba/F3^myr-Akt1 cells): 0.43 | Log ratio EC50 [Akt] / EC50 [Akt], Akt3 / Akt2 (Ba/F3^myr-Akt3 cells): -0.50

Compound: C=CC(=O)Nc1ccc2[nH]c(=O)n(C3CCN(Cc4ccc(-c5ncc(C(=O)O)cc5-c5ccccc5)cc4)CC3)c2c1 [compound 4]
EC50 (parental Ba/F3 cells; CTG, parental BaF3 cell line, read-out: EC50 BaF3): > 30000 nM | EC50 (parental Ba/F3 cells; parental cells, mean of replicates, read-out: CTG BaF3, Mean): > 30000 nM | EC50 (parental Ba/F3 cells; [5]): > 30000 nM | EC50 BaF3myr-Akt1 (Ba/F3^myr-Akt1 cells; CTG): generally inactive | Log ratio EC50 [Akt] / EC50 [Akt], Akt1 / Akt2 (Ba/F3^myr-Akt1 cells): 0 | EC50 (Ba/F3^myr-Akt1 cells; read-out: CTG BaF3myr-Akt1, Mean, mean of replicates): > 30000 nM | EC50 (Ba/F3^myr-Akt1 cells; [7]): > 30000 nM | EC50 (Ba/F3^myr-Akt1 cells; read-out: EC50 BaF3myr-Akt1, CTG): > 30000 nM | EC50 BaF3myr-Akt2 (Ba/F3^myr-Akt2 cells; CTG): generally inactive | EC50 (Ba/F3^myr-Akt2 cells; read-out: CTG BaF3myr-Akt2, Mean, mean of replicates): > 30000 nM | EC50 (Ba/F3^myr-Akt2 cells; [10]): > 30000 nM | EC50 (Ba/F3^myr-Akt2 cells; read-out: EC50 BaF3myr-Akt2, CTG): > 30000 nM | EC50 BaF3myr-Akt3 (Ba/F3^myr-Akt3 cells; CTG): generally inactive | Log ratio EC50 [Akt] / EC50 [Akt], Akt3 / Akt2 (Ba/F3^myr-Akt3 cells): 0 | EC50 (Ba/F3^myr-Akt3 cells; read-out: CTG BaF3myr-Akt3, Mean, mean of replicates): > 30000 nM | EC50 (Ba/F3^myr-Akt3 cells; [13]): > 30000 nM | EC50 (Ba/F3^myr-Akt3 cells; read-out: EC50 BaF3myr-Akt3, CTG): > 30000 nM | Log ratio IC50 [Akt] / IC50 [Akt], Akt1 / Akt2 (Akt1 [1]): -0.75 | IC50 (Akt1 [1]; read-out: HTRF IC50 Akt1, Mean, mean of replicates): 44.3 nM | IC50 (Akt1 [1]; read-out: HTRF IC50 Akt1, individual determinations, single replicates): 45.5 nM and 22.1 nM and 65.3 nM | IC50 (Akt1 [1]; read-out: IC50 Akt1, HTRF, ATP at KM, 1 h preincubation): 44 ± 18 nM | IC50 (Akt2 [2]; read-out: HTRF IC50 Akt2, Mean, mean of replicates): 248 nM | IC50 (Akt2 [2]; read-out: HTRF IC50 Akt2, individual determinations, single replicates): 189 nM and 309 nM and 245 nM | IC50 (Akt2 [2]; read-out: IC50 Akt2, HTRF, ATP at KM, 1 h preincubation): 248 ± 49 nM | IC50 (Akt3; read-out: HTRF IC50 Akt3, individual determinations, single replicates): 5700 nM and 7190 nM and 8390 nM | IC50 (Akt3; read-out: IC50 Akt3, HTRF, ATP at KM, 1 h preincubation): 6450 ± 742 nM
